Experimental findings from patent US11021481B2, “Substituted isoindolin-1-ones and 2,3-dihydro-1h-pyrrolo[3,4-c]pyridin-1-ones as HPK1 antagonists” (Nimbus Saturn, Inc., priority 2019, dated 2021) are described below.

Structures are written as SMILES.

Chain of HPK1 (Q92918 whole entry): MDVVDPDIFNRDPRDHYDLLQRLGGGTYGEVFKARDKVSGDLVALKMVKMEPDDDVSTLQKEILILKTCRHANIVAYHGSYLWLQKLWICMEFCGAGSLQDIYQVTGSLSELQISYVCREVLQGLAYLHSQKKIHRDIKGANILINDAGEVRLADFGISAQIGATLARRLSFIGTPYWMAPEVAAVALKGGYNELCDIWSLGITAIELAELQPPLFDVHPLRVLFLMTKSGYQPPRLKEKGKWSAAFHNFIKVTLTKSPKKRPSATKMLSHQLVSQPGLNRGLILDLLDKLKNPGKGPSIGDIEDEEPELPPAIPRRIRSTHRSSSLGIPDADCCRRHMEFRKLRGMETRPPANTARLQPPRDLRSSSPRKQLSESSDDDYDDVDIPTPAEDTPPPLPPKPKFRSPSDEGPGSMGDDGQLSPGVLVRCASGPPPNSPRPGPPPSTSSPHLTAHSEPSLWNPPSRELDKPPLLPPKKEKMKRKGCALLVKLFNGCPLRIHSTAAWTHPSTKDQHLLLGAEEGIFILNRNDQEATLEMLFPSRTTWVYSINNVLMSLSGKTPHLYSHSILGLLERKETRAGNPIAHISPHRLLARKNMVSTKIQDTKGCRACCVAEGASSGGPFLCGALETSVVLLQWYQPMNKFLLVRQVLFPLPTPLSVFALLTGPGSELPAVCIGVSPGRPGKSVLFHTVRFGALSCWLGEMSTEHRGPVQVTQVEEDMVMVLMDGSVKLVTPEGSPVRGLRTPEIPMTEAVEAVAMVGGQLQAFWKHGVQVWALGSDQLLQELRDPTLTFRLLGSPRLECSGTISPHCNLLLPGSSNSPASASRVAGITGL

The test has as its target HPK1 (Homo sapiens (Human), UniProt Q92918). In words: HPK1 biochemical enzyme assay (microfluidic mobility shift assay). Conditions: 1.5 nM HPK1, ATP 1 mM final, 30 min preincubation, 60 min at RT, Caliper EZ Reader; read-out: HPK1 1000UMATP caliper IC50. The essentials: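 Ten-point compound titrations (top 3 μM final) preincubated 30 min with HPK1 and substrate, then reaction started with 1 mM ATP and 1 μM substrate, 5 mM MgCl2. After 60 min at RT, reaction terminated and product measured by microfluidic mobility shift.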
The term IC50 denotes the concentration that inhibits the measured activity by half. As to `Cc1csc2c(-c3ncc(Nc4ccc(N5CCC(O)CC5)cn4)c4c3CNC4=O)ccnc12` [I-373, 7-((5-(4-hydroxypiperidin-1-yl)pyridin-2-yl)amino)-4-(3-methylthieno [3,2-b]pyridin-7-yl)-2,3-dihydro-1H-pyrrolo[3,4-c]pyridin-1-one], the IC50 is under 100 nM.

As to `Cn1cc(-c2ccc(Nc3ccc(N4CCC(O)CC4)cn3)c3c2CNC3=O)c2ccnnc21` [I-374, 7-((5-(4-hydroxy-piperidin-1-yl)pyridin-2-yl)amino)-4-(7-methyl-7H-pyrrolo[2,3-c]pyridazin-5-yl)isoindolin-1-one], the IC50 was under 100 nM.

As to `Cn1nccc2c(-c3ccc(Nc4ccc(N5CCC(O)CC5)cn4)c4c3CNC4=O)cnc1-2` [I-375, 7-((5-(4-hydroxy-piperidin-1-yl)pyridin-2-yl)amino)-4-(1-methyl-1H-pyrrolo[2,3-c]pyridazin-5-yl)isoindolin-1-one], the 50% inhibitory concentration (IC50) is over 1000 nM.

For `O=C1NCc2c(-c3cncc4nccn34)ncc(Nc3ccc(N4CCC(O)CC4)cn3)c21` [I-376, 7-((5-(4-hydroxypiperidin-1-yl)pyridin-2-yl)amino)-4-(imidazo[1,2-a]pyrazin-5-yl)-2,3-dihydro-1H-pyrrolo[3,4-c]pyridin-1-one], the IC50 lay in the range of 100 to 1000 nM.

As for `O=C1NCc2c(-c3cnc4cc(F)ccn34)ccc(Nc3ccc(S(=O)(=O)CC4COC4)cn3)c21` [I-377, 4-(7-fluoroimidazo [1,2-a]pyridin-3-yl)-7-((5-((oxctan-3-ylmethyl)sulf-onyl)pyridin-2-yl)amino)isoin-dolin-1-one], the IC50 is 100 to 1000 nM.

In the case of `O=C1NCc2c(-c3cnc4cc(CN5CC(F)C5)ccn34)ccc(Nc3ccc(N4CCC(O)CC4)cn3)c21` [I-378, 4-(7-((3-fluoroazetidin-1-yl)methyl)imidazo[1,2-a]pyridin-3-yl)-7-((5-(4-hydroxy-piperidin-1-yl)pyridin-2-yl)amino)isoin-dolin-1-one], the IC50 lay within 100 to 1000 nM.

As for `O=C1NCc2c(-c3cnc4cc(F)ccn34)ccc(Nc3cnn(C4CCOCC4)c3)c21` [I-379, 4-(7-fluoroimidazo [1,2-a]pyridin-3-yl)-7-((1-(tetrahydro-2H-pyran-4-yl)-1H-pyrazol-4-yl)amino)isoin-dolin-1-one], the half-maximal inhibitory concentration (IC50) was in the range of 100 to 1000 nM.

On to `CN(C)Cc1ccn2c(-c3ccc(Nc4ccc(N5CCC(O)CC5)cn4)c4c3CNC4=O)cnc2c1` [I-380, 4-(7-((dimethylamino)-methyl)imi-dazo[1,2-a]pyridin-3-yl)-7-((5-(4-hydroxy-piperidin-1-yl)pyridin-2-yl)amino)isoin-dolin-1-one], for which the IC50 is 100 to 1000 nM.

With `O=C1NCc2c(-c3cnc4cc(F)ccn34)ccc(Nc3cc(C4CCOCC4)[nH]n3)c21` [I-381, 4-(7-fluoroimidazo [1,2-a]pyridin-3-yl)-7-((5-(tetrahydro-2H-pyran-4-yl)-1H-pyrazol-3-yl)amino)isoin-dolin-1-one], the IC50 is under 100 nM.

In the case of `CN(C)CC1CN(c2ccc(Nc3ccc(-c4cnc5cc(F)ccn45)c4c3C(=O)NC4)nc2)CCO1` (stereo not shown) [I-383, 7-((5-(2-((dimethylamino)-methyl)mor pholino)pyridin-2-yl)amino)-4-(7-fluoroimidazo [1,2-a]pyridin-3-yl)isoindolin-1-one], the IC50 is under 100 nM.

Take `O=C1NCc2c(-c3cccn4ccnc34)ncc(Nc3ccc(N4CCC(O)CC4)cn3)c21` [I-384, 7-((5-(4-hydroxy-piperidin-1-yl)pyridin-2-yl)amino)-4-(imidazo[1,2-a]pyridin-8-yl)-2,3-dihydro-1H-pyrrolo[3,4-c]pyridin-1-one]: the IC50 was over 1000 nM.

On to `CN(C)CC1(O)CCCN(c2ccc(Nc3ccc(-c4cnc5cc(F)ccn45)c4c3C(=O)NC4)nc2)C1` (stereo not shown) [I-385, 7-((5-(3-((dimethylamino)-methyl)-3-hydroxypiperidin-1-yl)pyridin-2-yl)amino)-4-(7-fluoroimidazo [1,2-a]pyridin-3-yl)isoindolin-1-one], for which the IC50 was under 100 nM.

In the case of `CN(C)CCN1CCC(c2ccc(Nc3cnc(-c4ccnc5c4ccn5C)c4c3C(=O)NC4)nc2)CC1=O` (stereo not shown) [I-386, 7-((5-(1-(2-(dimethylami-no)ethyl)-2-oxopiperidin-4-yl)pyridin-2-yl)amino)-4-(1-methyl-1H-pyrrolo[2,3-b]pyridin-4-yl)-2,3-dihydro-1H-pyrrolo[3,4-c]pyridin-1-one], the IC50 was under 100 nM.

Consider `O=C1NCc2c(-c3cnc4cc(F)ccn34)ccc(Nc3ccc(N4CCC(O)(CN5CCCC5)CC4)cn3)c21` [I-387], for which the IC50 was under 100 nM.

With `CN1CCN(CC2(O)CCCN(c3ccc(Nc4ccc(-c5cnc6cc(F)ccn56)c5c4C(=O)NC5)nc3)C2)CC1` (stereo not shown) [I-388, 4-(7-fluoroimidazo [1,2-a]pyridin-3-yl)-7-((5-(3-hydroxy-3-((4-methylpiperazin-1-yl)methyl)piper-idin-1-yl)pyridin-2-yl)amino)isoin-dolin-1-one], the IC50 was under 100 nM.

`Cc1cc(Nc2ccc(N3CCC(O)CC3)cn2)c2c(c1-c1cnc3cc(F)ccn13)CNC2=O` [I-389, 4-(7-fluoroimidazo [1,2-a]pyridin-3-yl)-7-((5-(4-hydroxypiperidin-1-yl)pyridin-2-yl)amino)-5-methylisoindol in-1-one]: the IC50 is under 100 nM.

Regarding `Cn1ccc2c(-c3ncc(Nc4cccc(C5CCNCC5)n4)c4c3CNC4=O)ccnc21` [I-390, 4-(1-methyl-1H-pyrrolo[2,3-b]pyridin-4-yl)-7-((6-(piperidin-4-yl)pyridin-2-yl)amino)-2,3-dihydro-1H-pyrrolo[3,4-c]pyridin-1-one], the IC50 fell in the range of 100 to 1000 nM.

Regarding `COC[C@]1(O)CCCN(c2ccc(Nc3ccc(-c4cnc5cc(F)ccn45)c4c3C(=O)NC4)nc2)C1` [I-393, (S)-4-(7-fluoroimidazo [1,2-a]pyridin-3-yl)-7-((5-(3-hydroxy-3-(methoxymeth-yl)piperidin-1-yl)pyridin-2-yl)amino)isoin-dolin-1-one], the IC50 was under 100 nM.

In the case of `COC[C@@]1(O)CCCN(c2ccc(Nc3ccc(-c4cnc5cc(F)ccn45)c4c3C(=O)NC4)nc2)C1` [I-394, (R)-4-(7-fluoroimidazo [1,2-a]pyridin-3-yl)-7-((5-(3-hydroxy-3-(methoxymeth-yl)piperidin-1-yl)pyridin-2-yl)amino)isoin-dolin-1-one], the IC50 was under 100 nM.

Turning to `O=C1NCc2c(-c3cnc4cc(F)ccn34)ccc(Nc3ccc(N4CC(O)CCC45CC5)cn3)c21` (stereo not shown) [I-395, 4-(7-fluoroimidazo [1,2-a]pyridin-3-yl)-7-((5-(6-hydroxy-4-azaspiro[2.5]octan-4-yl)pyridin-2-yl)amino)isoin-dolin-1-one], the half-inhibitory concentration (IC50) was under 100 nM.

With `Cn1ncc(Nc2ccc(-c3cnc4cc(F)ccn34)c3c2C(=O)NC3)c1C1CCOCC1` [I-396], the IC50 is over 1000 nM.

For `CC1(O)CCN(c2ccc(Nc3ccc(-c4cnc5cc(F)ccn45)c4c3C(=O)NC4)nc2)CC1` [I-397, 4-(7-fluoroimidazo [1,2-a]pyridin-3-yl)-7-((5-(4-hydroxy-4-methylpiperidin-1-yl)pyridin-2-yl)amino)isoin-dolin-1-one], the IC50 is under 100 nM.

Consider `O=C1NCc2c(-c3cnc4cc(F)ccn34)ccc(Nc3ccc(N4CC[C@@H](O)[C@H](F)C4)cn3)c21` [I-399, 7-((5-((3R,4R)-3-fluoro-4-hydroxy-piperidin-1-yl)pyridin-2-yl)amino)-4-(7-fluoroimidazo [1,2-a]pyridin-3-yl)isoindolin-1-one], for which the half-inhibitory concentration (IC50) is under 100 nM.

Turning to `O=C1NCc2c(-c3cnc4cc(F)ccn34)ccc(Nc3ccc(N4CC[C@H](O)[C@@H](F)C4)cn3)c21` [I-400, 7-((5-((3S, 4S)-3-fluoro-4-hydroxy-piperidin-1-yl)pyridin-2-yl)amino)-4-(7-fluoroimidazo [1,2-a]pyridin-3-yl)isoindolin-1-one], the IC50 was under 100 nM.

As for `CN1CCN(CC2(O)CCN(c3ccc(Nc4cnc(-c5ccnc6c5ccn6C)c5c4C(=O)NC5)nc3)CC2)CC1` [I-401, 7-((5-(4-hydroxy-4-((4-methylpiperazin-1-yl)methyl)piper-idin-1-yl)pyridin-2-yl)amino)-4-(1-methyl-1H-pyrrolo[2,3-b]pyridin-4-yl)-2,3-dihydro-1H-pyrrolo[3,4-c]pyridin-1-one], the IC50 was under 100 nM.

For `Cc1cccn2c(-c3ccc(Nc4ccc(N5CCC(O)(CN6CCN(C)CC6)CC5)cn4)c4c3CNC4=O)cnc12` [I-402, 7-((5-(4-hydroy-4-((4-methylpiperazin-1-yl)methyl)piper-idin-1-yl)pyridin-2-yl)amino)-4-(8-methylimidazo [1,2-a]pyridin-3-yl)isoindolin-1-one], the IC50 is under 100 nM.

Turning to `CN1CCN(CC2(O)CCN(c3ccc(Nc4ccc(-c5cnc6ccccn56)c5c4C(=O)NC5)nc3)CC2)CC1` [I-403, 7-((5-(4-hydroxy-4-((4-methylpiperazin-1-yl)methyl)pip-eridin-1-yl)pyridin-2-yl)amino)-4-(imidazo[1,2-a]pyridin-3-yl)isoindolin-1-one], the IC50 is under 100 nM.

On to `O=C1NCc2c(-c3cnc4cc(F)ccn34)ccc(Nc3ccc(N4C[C@H]5CC[C@@H](C4)C5O)cn3)c21` (stereo partly drawn) [I-404, 4-(7-fluoroimidazo [1,2-a]pyridin-3-yl)-7-((5-((1R,5S)-8-hydroxy-3-azabicyclo [3,2.1]octan-3-yl)pyridin-2-yl)amino)isoin-dolin-1-one], for which the IC50 is under 100 nM.

Turning to `CN(C)CCN1CCC(c2ccc(Nc3ccc(-c4cnc5cc(F)ccn45)c4c3C(=O)NC4)nc2)CC1=O` (stereo not shown) [I-406, 7-((5-(1-(2-(dimethylami-no)ethyl)-2-oxopiperidin-4-yl)pyridin-2-yl)amino)-4-(7-fluoroimidazo [1,2-a]pyridin-3-yl)isoindolin-1-one], the IC50 was under 100 nM.

In the case of `CN1CCC(O)(c2cccc(Nc3cnc(-c4ccnc5c4ccn5C)c4c3C(=O)NC4)n2)CC1` [I-407, 7-((6-(4-hydroxy-1-methylpiperidin-4-yl)pyridin-2-yl)amino)-4-(1-methyl-1H-pyrrolo[2,3-b]pyridin-4-yl)-2,3-dihydro-1H-pyrrolo[3,4-c]pyridin-1-one], the IC50 is under 100 nM.

On to `Cn1nc(Nc2ccc(-c3cnc4cc(F)ccn34)c3c2C(=O)NC3)cc1C1CCOCC1` [I-408], for which the IC50 was under 100 nM.
